This passage reports IC50 results from patent US20100184786A1, “Polar Quinazolines” (Wyeth LLC, priority 2008, published 2010).

The term IC50 denotes the point on the concentration scale where inhibition reaches its midpoint.

Experiment [1] addresses T1, human LXRα (Homo sapiens, UniProt Q13133).
T1 construct: biotin (biotinylated); made in house; host or cells: E. coli
T1 sequence (Q13133 1-447): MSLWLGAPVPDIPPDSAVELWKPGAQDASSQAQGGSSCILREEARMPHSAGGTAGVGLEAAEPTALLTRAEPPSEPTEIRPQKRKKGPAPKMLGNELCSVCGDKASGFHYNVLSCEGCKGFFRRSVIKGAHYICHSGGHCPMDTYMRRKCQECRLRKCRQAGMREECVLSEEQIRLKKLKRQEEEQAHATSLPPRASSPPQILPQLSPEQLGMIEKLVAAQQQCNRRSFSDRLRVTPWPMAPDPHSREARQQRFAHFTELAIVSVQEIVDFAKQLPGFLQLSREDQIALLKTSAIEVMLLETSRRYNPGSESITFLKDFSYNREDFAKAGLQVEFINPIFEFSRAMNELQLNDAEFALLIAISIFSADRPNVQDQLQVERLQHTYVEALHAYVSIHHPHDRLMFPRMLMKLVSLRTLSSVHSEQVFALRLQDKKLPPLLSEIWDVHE
Kind of experiment: Ligand-binding test procedure for human LXRα (3H T0901317 tracer, flash plates). Conditions: competition with 3H T0901317; read-out: hLXRa binding IC50. How it is done: II. Ligand-Binding Test Procedure for Human LXRa.
• Buffer: 100 mM KCl, 100 mM TRIS (pH 7.4 at +4° C.), 8.6% glycerol, 0.1 mM PMSF*, 2 mM MTG*, 0.2% CHAPS (* not used in wash buffer) • Tracer: ^3H T0901317 • Receptor source: E. coli extract from cells expressing biotinylated hLXRα. Extract was made in a similar buffer as above, but with 50 mM TRIS.
• Washed streptavidin and coated flash plates with wash buffer. • Diluted receptor extract to give Bmax˜4000 cpm and add to the wells. • Wrapped the plates in aluminum foil and stored them at +4° C. over night.
(§1) • Made a dilution series in DMSO of the test ligands. • Made a 5 nM solution of the radioactive tracer in buffer. • Mixed 2500 diluted tracer with 50 of the test ligand from each concentration of the dilution series. • Washed the receptor-coated flash plates. • Added 2000 per well of the ligand/radiolabel mixture to the receptor-coated flash plates. • Wrapped the plates in aluminum foil and incubate at +4° C. over night.
• Aspirated wells, and wash the flashed plates. Sealed the plate. • Measured the remaining radioactivity in the plate.

The target in experiment [2] is T2, human LXRβ (Homo sapiens, UniProt P55055).
T2 construct: biotin (biotinylated); made in house; host or cells: E. coli
T2 sequence (P55055 1-460): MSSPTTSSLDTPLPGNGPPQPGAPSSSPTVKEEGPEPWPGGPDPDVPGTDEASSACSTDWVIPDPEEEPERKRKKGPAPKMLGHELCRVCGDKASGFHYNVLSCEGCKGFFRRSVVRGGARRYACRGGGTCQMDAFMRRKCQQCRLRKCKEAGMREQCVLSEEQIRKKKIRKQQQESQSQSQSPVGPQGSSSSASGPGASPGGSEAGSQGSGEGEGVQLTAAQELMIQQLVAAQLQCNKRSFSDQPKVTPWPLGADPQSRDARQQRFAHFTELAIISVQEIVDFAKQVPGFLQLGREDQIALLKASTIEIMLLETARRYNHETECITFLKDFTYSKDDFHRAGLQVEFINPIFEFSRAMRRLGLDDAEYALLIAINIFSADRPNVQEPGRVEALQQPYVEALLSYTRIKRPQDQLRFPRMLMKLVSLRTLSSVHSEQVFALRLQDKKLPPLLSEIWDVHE
Kind of experiment: Ligand-binding test procedure for human LXRβ (3H T0901317 tracer, flash plates). Conditions: competition with 3H T0901317; read-out: hLXRb binding IC50. How it is done: I. Ligand-Binding Test Procedure for Human LXRβ.
• Buffer: 100 mM KCl, 100 mM TRIS (pH 7.4 at +4° C.), 8.6% glycerol, 0.1 mM PMSF*, 2 mM MTG*, 0.2% CHAPS (* not used in wash buffer) • Tracer: ^3H T0901317 • Receptor source: E. coli extracted from cells expressing biotinylated hLXRβ. Extract was made in a similar buffer as above, but with 50 mM TRIS.
• Washed streptavidin and coated flash plates with wash buffer. • Diluted receptor extract to give Bmax˜4000 cpm and add to the wells. • Wrapped the plates in aluminum foil and stored them at +4° C. overnight.
as §1
• Aspirated wells, and washed the flashed plates. Sealed the plate. • Measured the remaining radioactivity in the plate.

Take `NC(=O)CCCS(=O)(=O)c1cccc(Oc2ccc(F)c(-c3ncnc4c(C(F)(F)F)cccc34)c2)c1` [Example 26, 4-[(3-{4-fluoro-3-[8-(trifluoromethyl)quinazolin-4-yl]phenoxy}phenyl)sulfonyl]butanamide]: the results for the IC50 in experiment [1] and in experiment [2] were 2.48 µM and 184 nM, respectively. In the case of `NC(=O)CCCCS(=O)(=O)c1cccc(Oc2ccc(F)c(-c3ncnc4c(Cl)cccc34)c2)c1` [Example 53, 5-({3-[3-(8-chloroquinazolin-4-yl)-4-fluorophenoxy]phenyl}sulfonyl)pentanamide], the IC50 in experiment [1] came to 232 µM; in experiment [2], 324 nM. Regarding `CN(CCCCS(=O)(=O)c1cccc(Oc2ccc(F)c(-c3ncnc4c(Cl)cccc34)c2)c1)S(C)(=O)=O` [Example 48, N-[4-({3-[3-(8-chloroquinazolin-4-yl)-4-fluorophenoxy]phenyl}sulfonyl)butyl]-N-methylmethanesulfonamide], the IC50 in experiment [2] was 1020 nM. With `N#CCCCS(=O)(=O)c1cccc(Oc2ccc(F)c(-c3ncnc4c(Cl)cccc34)c2)c1` [Example 47, 4-({3-[3-(8-chloroquinazolin-4-yl)-4-fluorophenoxy]phenyl}sulfonyl)butanenitrile], the values for the IC50 in experiment [1] and in experiment [2] were 3.98 µM and 274 nM, respectively.

For the molecule `O=C(O)CCCCS(=O)(=O)c1cccc(Oc2ccc(F)c(-c3ncnc4c(Cl)cccc34)c2)c1` [Example 56, 5-({3-[3-(8-chloroquinazolin-4-yl)-4-fluorophenoxy]phenyl}sulfonyl)pentanoic acid], in experiment [2], the half-maximal inhibitory concentration (IC50) stood at 3430 nM. For the molecule `N#CCS(=O)(=O)c1cccc(Oc2ccc(F)c(-c3ncnc4c(Cl)cccc34)c2)c1` [Example 10, ({3-[3-(8-chloroquinazolin-4-yl)-4-fluorophenoxy]phenyl}sulfonyl)acetonitrile], the 50% inhibitory concentration (IC50) worked out at 1.53 µM in experiment [1] and 286 nM in experiment [2]. As for `CS(=O)(=O)c1cc(Oc2ccc(F)c(-c3ncnc4c(C(F)(F)F)cccc34)c2)ccc1C(N)=O` [Example 39, 4-{4-fluoro-3-[8-(trifluoromethyl)quinazolin-4-yl]phenoxy}-2-(methylsulfonyl)benzamide], the IC50 in experiment [1] came out at 4.37 µM; in experiment [2], 1210 nM. In the case of `NCCCCS(=O)(=O)c1cccc(Oc2ccc(F)c(-c3ncnc4c(C(F)(F)F)cccc34)c2)c1` [Example 35, 4-[(3-{4-fluoro-3-[8-(trifluoromethyl)quinazolin-4-yl]phenoxy}phenyl)sulfonyl]butan-1-amine], the half-inhibitory concentration (IC50) in experiment [1] turned out to be 9.42 µM; in experiment [2], 584 nM. With `O=C(O)CCCS(=O)(=O)c1cccc(Oc2ccc(F)c(-c3ncnc4c(C(F)(F)F)cccc34)c2)c1` [Example 27, 4-[(3-{4-fluoro-3-[8-(trifluoromethyl)quinazolin-4-yl]phenoxy}phenyl)sulfonyl]butanoic acid], the values for the IC50 in experiment [1] and in experiment [2] were 16.7 µM and 1200 nM, respectively. On to `CS(=O)(=O)NCCCS(=O)(=O)c1cccc(Oc2ccc(F)c(-c3ncnc4c(C(F)(F)F)cccc34)c2)c1` [Example 29, N-{3-[(3-{4-fluoro-3-[8-(trifluoromethyl)quinazolin-4-yl]phenoxy}phenyl)sulfonyl]propyl}-methanesulfonamide], for which the IC50 stood at 1.33 µM in experiment [1] and 157 nM in experiment [2].

Consider `Cc1nc(-c2cc(Oc3cccc(S(=O)(=O)CCCCNS(C)(=O)=O)c3)ccc2Cl)c2cccc(C(F)(F)F)c2n1` [Example 63, N-{4-[(3-{4-chloro-3-[2-methyl-8-(trifluoromethyl)quinazolin-4-yl]phenoxy}phenyl)sulfonyl]-butyl}methanesulfonamide], for which the half-maximal inhibitory concentration (IC50) in experiment [1] came to 4.54 µM; in experiment [2], 326 nM. For `Cc1nc(-c2cc(Oc3cccc(S(=O)(=O)CCCNS(C)(=O)=O)c3)ccc2Cl)c2cccc(C(F)(F)F)c2n1` [Example 62, N-{3-[(3-{4-chloro-3-[2-methyl-8-(trifluoromethyl)quinazolin-4-yl]phenoxy}phenyl)sulfonyl]-propyl}methanesulfonamide], in that order: 7.04 µM and 343 nM.

In the case of `NCCCS(=O)(=O)c1cccc(Oc2ccc(F)c(-c3ncnc4c(Cl)cccc34)c2)c1` [Example 46, 3-({3-[3-(8-chloroquinazolin-4-yl)-4-fluorophenoxy]phenyl}sulfonyl)propan-1-amine], the IC50 in experiment [1] is 8.18 µM; in experiment [2], 296 nM. For `CS(=O)(=O)c1cc(Oc2ccc(Cl)c(-c3ncnc4c(Cl)cccc34)c2)ccc1C#N` [Example 1, 4-[4-chloro-3-(8-chloroquinazolin-4-yl)phenoxy]-2-(methylsulfonyl)benzonitrile], the half-inhibitory concentration (IC50) in experiment [1] came out at 3.13 µM; in experiment [2], 329 nM. In the case of `O=C(O)CCCS(=O)(=O)c1cccc(Oc2ccc(F)c(-c3ncnc4c(Cl)cccc34)c2)c1` [Example 57, 4-({3-[3-(8-chloroquinazolin-4-yl)-4-fluorophenoxy]phenyl}sulfonyl)butanoic acid], the 50% inhibitory concentration (IC50) in experiment [2] was 4210 nM. With `CS(=O)(=O)NCCCS(=O)(=O)c1cccc(Oc2ccc(F)c(-c3ncnc4c(Cl)cccc34)c2)c1` [Example 50, N-[3-({3-[3-(8-chloroquinazolin-4-yl)-4-fluorophenoxy]phenyl}sulfonyl)propyl]methane-sulfonamide], the IC50 worked out at 6.35 µM in experiment [1] and 471 nM in experiment [2]. Consider `CS(=O)(=O)c1cc(Oc2ccc(F)c(-c3ncnc4c(C(F)(F)F)cccc34)c2)ccc1C#N` [Example 38, 4-{4-fluoro-3-[8-(trifluoromethyl)quinazolin-4-yl]phenoxy}-2-(methylsulfonyl)benzonitrile], for which the IC50 was found to be 4.1 µM in experiment [1] and 506 nM in experiment [2].

Consider `CS(=O)(=O)c1cc(Oc2ccc(F)c(-c3ncnc4c(Cl)cccc34)c2)ccc1C(N)=O` [Example 42, 4-[3-(8-chloroquinazolin-4-yl)-4-fluorophenoxy]-2-(methylsulfonyl)benzamide], for which the IC50 in experiment [1] is 10.9 µM; in experiment [2], 4900 nM.

As to `NS(=O)(=O)c1cccc(Oc2ccc(F)c(-c3ncnc4c(Cl)cccc34)c2)c1` [Example 20, 3-[3-(8-chloroquinazolin-4-yl)-4-fluorophenoxy]benzenesulfonamide], the 50% inhibitory concentration (IC50) came to 2.88 µM in experiment [1] and 336 nM in experiment [2]. For the molecule `O=C(O)CCCCS(=O)(=O)c1cccc(Oc2ccc(F)c(-c3ncnc4c(C(F)(F)F)cccc34)c2)c1` [Example 34, 5-[(3-{4-fluoro-3-[8-(trifluoromethyl)quinazolin-4-yl]phenoxy}phenyl)sulfonyl]pentanoic acid], the values for the IC50 in experiment [1] and in experiment [2] were 11.9 µM and 1430 nM, respectively. As to `CS(=O)(=O)c1cc(Oc2ccc(F)c(-c3ncnc4c(Cl)cccc34)c2)ccc1C#N` [Example 41, 4-[3-(8-chloroquinazolin-4-yl)-4-fluorophenoxy]-2-(methylsulfonyl)benzonitrile], the half-maximal inhibitory concentration (IC50) in experiment [2] amounted to 1060 nM.

Take `CN(CCCS(=O)(=O)c1cccc(Oc2ccc(F)c(-c3ncnc4c(Cl)cccc34)c2)c1)S(C)(=O)=O` [Example 49, N-[3-({3-[3-(8-chloroquinazolin-4-yl)-4-fluorophenoxy]phenyl}sulfonyl)propyl]-N-methylmethanesulfonamide]: the half-inhibitory concentration (IC50) in experiment [2] amounted to 1990 nM. With `CNCCCCS(=O)(=O)c1cccc(Oc2ccc(F)c(-c3ncnc4c(Cl)cccc34)c2)c1` [Example 43, 4-({3-[3-(8-chloroquinazolin-4-yl)-4-fluorophenoxy]phenyl}sulfonyl)-N-methylbutan-1-amine], in experiment [2], the IC50 was 3590 nM.
